{
  "source": "paper PMC3394403",
  "about": "(2011)",
  "biological_target": "P-glycoprotein (P-gp, ABCB1, MDR1) (Homo sapiens, UniProt P08183)",
  "sequence (P08183 whole entry)": "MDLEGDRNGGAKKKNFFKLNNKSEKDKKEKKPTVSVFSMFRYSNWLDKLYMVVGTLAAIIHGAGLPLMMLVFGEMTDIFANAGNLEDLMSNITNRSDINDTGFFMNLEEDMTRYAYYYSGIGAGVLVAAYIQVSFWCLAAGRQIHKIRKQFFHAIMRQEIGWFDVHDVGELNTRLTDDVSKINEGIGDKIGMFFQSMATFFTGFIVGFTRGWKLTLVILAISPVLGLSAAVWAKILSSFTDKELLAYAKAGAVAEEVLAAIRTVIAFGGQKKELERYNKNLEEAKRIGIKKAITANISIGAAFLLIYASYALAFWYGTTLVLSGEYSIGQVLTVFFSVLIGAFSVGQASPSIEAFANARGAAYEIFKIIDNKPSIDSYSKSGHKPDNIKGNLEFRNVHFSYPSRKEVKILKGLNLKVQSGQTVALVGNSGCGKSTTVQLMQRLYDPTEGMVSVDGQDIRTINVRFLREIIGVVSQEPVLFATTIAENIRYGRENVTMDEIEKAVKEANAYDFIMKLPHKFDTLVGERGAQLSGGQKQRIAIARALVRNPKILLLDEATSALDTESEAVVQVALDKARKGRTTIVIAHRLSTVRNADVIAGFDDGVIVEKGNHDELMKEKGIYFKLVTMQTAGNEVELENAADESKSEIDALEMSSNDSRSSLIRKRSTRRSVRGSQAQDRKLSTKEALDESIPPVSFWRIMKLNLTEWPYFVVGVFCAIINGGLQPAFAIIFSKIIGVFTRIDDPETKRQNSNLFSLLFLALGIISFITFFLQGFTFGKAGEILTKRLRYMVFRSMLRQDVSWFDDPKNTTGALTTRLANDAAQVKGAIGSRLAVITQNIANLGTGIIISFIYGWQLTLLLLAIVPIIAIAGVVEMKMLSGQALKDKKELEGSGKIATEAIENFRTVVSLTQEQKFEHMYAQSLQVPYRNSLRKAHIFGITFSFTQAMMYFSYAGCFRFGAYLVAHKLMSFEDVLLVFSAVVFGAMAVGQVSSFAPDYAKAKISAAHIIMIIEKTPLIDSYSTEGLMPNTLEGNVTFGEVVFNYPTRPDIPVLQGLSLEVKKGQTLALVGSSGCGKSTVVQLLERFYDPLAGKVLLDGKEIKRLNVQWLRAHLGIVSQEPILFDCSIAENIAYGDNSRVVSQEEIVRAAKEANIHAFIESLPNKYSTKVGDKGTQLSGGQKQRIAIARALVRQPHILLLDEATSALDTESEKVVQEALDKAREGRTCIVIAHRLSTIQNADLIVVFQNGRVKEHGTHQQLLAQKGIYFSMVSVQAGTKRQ",
  "test": "inhibition of […]-IAAP photoaffinity labeling of P-gp in crude membranes",
  "format": "binding",
  "data": [
    {"compound": "C=C(C)/C=C/C[C@@H](C)[C@H]1CC[C@@]2(C)[C@@H]3[C@@H](O)C=C4[C@@H](CC[C@H](O)C4(C)C)[C@]3(C=O)CC[C@]12C", "note": "[kuguacin J]", "values": [
      {"measurement": "IC50", "value": "8.3 ± 5.4", "unit": "µM"}
    ]}
  ]
}
